Data taken from patent US20100323990A1, “SHIP 1 MODULATOR PRODRUGS” (THE UNIVERSITY OF BRITISH COLUMBIA, priority 2006, published 2010).

Tested on: Mast cells
Test: Stimulation of mast cells by FcεRI crosslinking (Assay 4)
Type: cell-based
Details: test compound 30 min prior to DNP-HSA
Procedure: Assay 1) In vitro testing in a SHIP enzyme assay. Test compounds were dissolved in a suitable solvent (e.g. EtOH, DMSO and others) and diluted into aqueous buffer (20 mM Tris HCl, pH 7.5 and 10 mM MgCl2). SHIP enzyme assays were performed in 96-well microtitre plates with 10 ng of enzyme/well in a total volume of 25 μL of 20 mM Tris HCl, pH 7.5 and 10 mM MgCl2. SHIP enzyme was incubated with test extracts (provided in solvent) or vehicle for 15 min at 23° C. before the addition of 100 μM inositol-1,3,4,5-tetrakisphosphate (Echelon Biosciences Inc, Salt Lake City, Utah). After 20 min at 37° C. and the amount of inorganic phosphate released assessed by the addition of Malachite Green reagent and absorbance measurement at 650 nm. Assay 2) Macrophage TNF-α production. J774.1a macrophage cells were treated with 10 μg/mL of test compound dissolved in solvent (e.g. cyclodextran) for 40 minutes prior to the addition of 100 ng/mL LPS. Culture supernatants were collected after 2 hr and 5 hr for TNF-α determination by ELISA. Assay 3) Macrophage TNF-α NO assay. J774.1a macrophage cells were treated with 10 μg/ml of test compound dissolved in solvent for 40 minutes prior to the addition of LPS. Culture supernatants were collected after 24 hr. for determination of NO concentration using the Griess reagent. Assay 4) Stimulation of mast cells by FcεRI crosslinking. Mast cells were pre-loaded overnight in BMMC medium lacking IL-3 with 0.1 μg/ml anti-DNP IgE (SPE-7, Sigma, Oakville, Ont). For calcium flux measurements, cells were incubated with 2 μM fura 2-acetoxymethyl ester (Molecular Probes, Eugene, Oreg.) in Tyrode's buffer at 23° C. for 45 min. Cells were then washed and incubated in the presence of the test compound 30 min prior to stimulation with the indicated concentration of DNP-human serum albumin (DNP-HSA). Calcium influx was monitored by spectrofluorometry as described previously. For analysis of intracellular signaling, cells were pre-loaded with anti-DNP IgE as above, pre-treated with the test compound for 30 min at 37° C. and stimulated with 20 ng/ml DNP-HSA for 5 min. Total cell lysates were then prepared and analyzed for phospho-PKB, phospho-p38^MAPK, phospho-MAPK, Grb-2 (Cell Signalling, Mississauga, Ont) and SHIP^6 by immunoblot analysis. Assay 5) Mouse acute cutaneous anaphylaxis model. […] The ability of SHIP activators to reduce tumor cell survival was assessed in MM cell lines treated with the test compound. The lines OPM1, OPM2, MM.1S and RPMI 8226 were plated at a density of 1×10^5 cells/mL in 200 μL of medium with various concentrations of the test compound, and viable cell numbers were determined on day 3 and day 5 by trypan blue exclusion. […]

How did the “Assay 4: Stimulation of mast cells by FcεRI crosslinking, desired activity” value turn out when `Cc1cc(O)cc2c1[C@]1(C)CCC3C(C)(C)CCC[C@]3(C)[C@H]1C2` (stereo partly shown) [Compound 100] was run?
The value was “+”.
